Common to all, as to assay type: cell-based
In one assay the test system is MT-4 cells. In words: MT-4 proliferation assay. The conditions noted are these: Homo sapiens, MT4, 120 h; Table 2; 5 days, Cell Titer Glo luminescence. Here is the method: Compounds were tested in a standardized high-throughput 384-well assay format. Each compound was serially diluted 3-fold in 100% DMSO in polypropylene 384-well plates using a Biomek FX Workstation, and 0.4 μL compound added to an assay plate containing 40 μL RPMI media. Compounds were arranged in a horizontal pattern, with 10 concentrations per compound, and 8 compounds added per plate. Due to low DMSO tolerability, the final DMSO concentration never exceeded 0.5% (v/v). Each assay plate contained 10 μM Puromycin and 0.5% DMSO in RPMI-1640 as positive and negative controls respectively. MT-4 cells (HTLV-1 transformed, human T lymphoblastoid cells, NIH Aids Reagent program) were added in volumes of 35 μL per well and 2,000 cells per well using a Biotek uFlow Workstation (Biotek, Winooski, Vt.), and the plates subsequently incubated for 5 days at 37° C. in an incubator set at 5% CO2 and 90% humidity.
After 5 days, 22 μL Cell Titer Glo (Promega) was added to the assay plates with a Biotek uFlow Workstation. Plates were subsequently placed on a Perkin Elmer Envision Plate Reader for 5 minutes before the luminescence signal was read.

The next assay has as its system c-Myc in MM.1S cells. In words: c-Myc down regulation assay (MSD) in MM.1S cells. Particulars: Homo sapiens, MM1.S, 24 hrs incubation. On the procedure: An enzyme linked immunosorbent assay using the Meso Scale Diagnostic (MSD) technology was used to detect levels of c-Myc produced in MM.1S cells (ATCC). MM.1S cells were cultured in RPMI-1640 media (Corning), supplemented with 10% FBS (Hyclone), 1% penicillin-streptomycin (Cellgro), 2-mercaptoethanol (Gibco) and seeded onto 384-tissue culture treated filter binding plates (Millipore) at a density of 40K cells/well containing titrations of small molecule inhibitors or DMSO (0.4%) in a volume of […] of media. After an incubation time of 24 hrs, cells were lysed (1× lysis buffer (Thermo) supplemented with protease and phosophatase inhibitor cocktail (Thermo)) and the plates centrifuged (1000 rpm, 1 min) to capture c-Myc on MSD plates coated with a monoclonal c-Myc antibody (Origene). Assay wells were washed (3× Invitrogen wash buffer) and probed with a polyclonal c-Myc antibody (Abeam) and MSD detection antibody solution in order to detect levels of c-Myc on the MSD platform. c-Myc capture was reported in pg/ml based on a standard curve using recombinant c-Myc protein (Prosci). EC50 values were calculated from the fit of the dose-response curves to a four-parameter equation. All EC50 values represent geometric mean values of a minimum of four determinations. These assays generally produced results within 3-fold of the reported mean.

In a further assay the test system is MM.1S cells. Description: MM.1S viability assay (CellTiter Glo). The conditions noted are these: Homo sapiens, MM1.S, 72 hr incubation, read-out: MM.1S Cell viability (EC50). Here is the method: For cell viability in the MM.1S cell line, cells were seeded onto 384-tissue culture treated plates (Greiner) at a density of 60K cells/well containing titrations of small molecule inhibitors or DMSO (0.2%). After 72 hr incubation cells were analyzed for cell viability by addition of CellTiter Glo (Promega) to the assay plates. After 15 min incubation at room temperature the signal from the viable cells was analyzed on an Envision plate reader (Perkin Elmer). EC50 values were calculated from the fit of the dose-response curves to a four-parameter equation. All EC50 values represent geometric mean values of a minimum of four determinations. These assays generally produced results within 3-fold of the reported mean.

As for `Cc1noc(C)c1-c1cc(C(O)(c2cccnn2)C2CCCO2)c2nc(C3CC3)[nH]c2c1` (single isomer, unassigned) [Compound 1020-289, (2-cyclopropyl-6-(3,5-dimethylisoxazol-4-yl)-1H-benzo[d]imidazol-4-yl)(pyridazin-3-yl)(tetrahydrofuran-2-yl)methanol], the EC50 in the assay with MT-4 cells was found to be 4.2 nM; with c-Myc in MM.1S cells it was 5.7 nM; with MM.1S cells, 17.8 nM.

Values taken from patent publication US20160075695A1, “BENZIMIDAZOLE DERIVATIVES AS BROMODOMAIN INHIBITORS” (Gilead Sciences, Inc., priority 2013, published 2016).
